Reference: ChEMBL document CHEMBL1144513, “Synthesis and SAR study of novel 7-(pyridinium-3-yl)-carbonyl imidazo[5,1-b]thiazol-2-yl carbapenems” (2007)
Converted amounts (≈) assume the structure as drawn.

Experiments:
Format in all cases: functional
[1] = system: Staphylococcus aureus; assay: Antibacterial activity against Staphylococcus aureus 209P JC1 by agar dilution method
[2] = system: Staphylococcus aureus; assay: Antibacterial activity against methicillin-resistant Staphylococcus aureus M126 by agar dilution method
[3] = system: Haemophilus influenzae; assay: Antibacterial activity against beta-lactamase-negative ampicillin-resistant Haemophilus influenzae 870 by agar dilution method
[4] = system: Escherichia coli; assay: Antibacterial activity against Escherichia coli NIHJ JC2 by agar dilution method
[5] = system: Staphylococcus aureus; assay: Antibacterial activity against carbapenem and methicillin-resistant Staphylococcus aureus M126HR by agar dilution method
[6] = system: Klebsiella pneumoniae; assay: Antibacterial activity against Klebsiella pneumoniae GN69 by agar dilution method
[7] = system: Moraxella catarrhalis; assay: Antibacterial activity against Moraxella catarrhalis W-0500 by agar dilution method
[8] = system: Streptococcus pneumoniae; assay: Antibacterial activity against penicillin-resistant Streptococcus pneumoniae KK133 by agar dilution method

C[C@@H](O)[C@H]1C(=O)N2C(C(=O)[O-])=C(c3cn4c(C5CC5)nc(C(=O)c5ccc[n+](CC(N)=O)c5)c4s3)[C@H](C)[C@H]12
MIC [1]: 0.016 µg/mL (≈ 0.0299 µM)
MIC [2]: 0.5 µg/mL (≈ 0.934 µM)
MIC [3]: 0.031 µg/mL (≈ 0.0579 µM)
MIC [4]: 4 µg/mL (≈ 7.47 µM)
MIC [5]: 2 µg/mL (≈ 3.73 µM)
MIC [6]: 4 µg/mL (≈ 7.47 µM)
MIC [7]: 0.016 µg/mL (≈ 0.0299 µM)
MIC [8]: 0.031 µg/mL (≈ 0.0579 µM)
